Measured values from patent US8278072B1, “Method for synthesis of sialylated products using reversible sialylation” (Health Research, Inc., priority 2007, dated 2012).

How the values were obtained:
Assay type in all cases: biochemical
ST3Gal-II [1] = target: T1, ST3Gal-II (Rattus norvegicus, UniProt Q11205); assay: Reverse sialylation: transfer of [9-3H]NeuAc from sialylated donor to nucleotide phosphates (WGA-agarose); conditions: donor [1]; for Incorporation of [9-3H]NeuAc expressed as percent of the CPM incorporated into 5′-CMP: nucleotide phosphate 1 mM as acceptor
T1 construct: purchased Calbiochem
T1 sequence (Q11205 1-350): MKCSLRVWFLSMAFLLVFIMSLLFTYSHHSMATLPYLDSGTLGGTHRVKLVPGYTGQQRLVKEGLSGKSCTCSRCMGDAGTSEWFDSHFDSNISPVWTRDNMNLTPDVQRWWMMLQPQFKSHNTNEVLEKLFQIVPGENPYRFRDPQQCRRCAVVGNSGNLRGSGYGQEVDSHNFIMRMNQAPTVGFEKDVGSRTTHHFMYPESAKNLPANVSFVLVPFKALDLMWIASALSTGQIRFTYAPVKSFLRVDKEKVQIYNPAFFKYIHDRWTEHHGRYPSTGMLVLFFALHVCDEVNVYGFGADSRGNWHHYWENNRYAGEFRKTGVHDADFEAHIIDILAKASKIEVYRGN
Protocol: FIG. 1. Nucleotide phosphates as acceptors of radioactivity from [9-^3H]NeuAcα2,3Galβ,13 (GlcNAcβ1,6)GalNAcα-O—Al (Al=Allyl) [[9-^3H] [1]] in the presence of ST3Gal-II (scheme-I). Reaction mixtures (RM) with the following composition were incubated at 37° C. for 21 hours in 100 mM NaCa Codylate buffer, pH6.0: i) RM containing 150 μM (0.4 μCi) [[9-^3H] [1]] (donor) along with 0.8 mU ST3Gal-II but no 5″-CMP; and, ii) RM containing [[9-^3H] [1]] and 1.0 mM 5′-CMP, along with ST3Gal-II. Products formed were fractionated on a WGA-agarose column. […] The feasibility of the reverse reaction is well established in literature. Schematic symbols: ♦:sialic acid, ●:Gal, □:GalNAc, ▪:GlcNAc.
All enzymatic sialylation reactions were typically carried out in 100 mM NaCa Codylate buffer pH6.0 in the presence of enzyme, synthetic acceptor (at 7.5 mM or as indicated in each experiment) and 0.2 μCi CMP-[9-^3H]NeuAc (NEN-Dupont, 29 mCi/μmol). The concentration of total CMP-NeuAc was adjusted in individual reactions by supplementing with additional cold CMP-NeuAc. Reaction volume was 20 μl. Products formed were separated using four different chromatography procedures (below). In all cases, the radioactive content of isolated products was determined by using 3a70 scintillation cocktail (Research Products International, Mount Prospect, Ill.), and a Beckman LS6500 scintillation counter.
a) Biogel P2 chromatography: A Biogel P2 column (Fine Mesh; 1.0×116.0 cm) was used with 0.1 M pyridine acetate (pH5.4) as the eluent at room temperature. […] Fractions of 1.0 ml were collected. The bound material was then eluted with 0.5M GlcNAc or 0.2M Gal in the same buffer. […] Calculation of equilibrium constant, Keq: Equilibrium constant was calculated for selected reversible bimolecular reactions that are denoted by:
Cloned and purified rat sialyltransferase α2,3(O)ST (ST3Gal-II) is used in many experiments presented in this manuscript. […] In order to determine if the sialylation reaction is reversible (FIG. 1), [9-^3H]NeuAcα2,3Galβ,13(GlcNAcβ1,6)GalNAcα-O—Al (Al=Allyl) [9-^3H[1]] was prepared using ST3Gal-II in the presence of CMP-[9-^3H]NeuAc and the trisaccharide acceptor Galβ1,3(GlcNAcβ1,6)GalNAcα-O—Al, and the radiolabeled product was isolated using Biogel P2 chromatography. […] Two different reaction mixtures were then prepared with: i) [9-^3H[1]] and ST3Gal-II but without 5″-CMP; and ii) [9-^3H[1]] and 5″-CMP along with ST3Gal-II.

[2] = target: T2, ST3Gal II (Cloned rat liver) (Rattus norvegicus, UniProt Q11205); assay: Forward (direct) sialyltransferase activity, ST3Gal-II; conditions: donor CMP-[9-3H]NeuAc, acceptor [5], varying nucleotide concentrations
T2 construct: purchased Calbiochem
T2 sequence (Q11205 1-350): T1 sequence (Q11205 1-350)
Protocol: (§1) FIG. 5. Effect of 5′-nucleotides on direct sialyltransferase activity (panel a) and reverse sialylation (panel b). a. Varying concentrations of 5′-CDP or 5′-CMP were added to 100 mM acceptor (specified below), 0.15 mM CMP-[9-^3H]NeuAc and either ST3Gal-II (0.2 mU), ST3Gal-III (0.5 mU) or ST6Gal-I (0.2 mU) for 4 h at 37° C. Products were separated using Sep-Pak C18 method. ST3Gal-III activity was measured using acceptor 4-O-MeGalβ1,4GlcNAcβ-O-Bn in the presence of 5′-CDP (●) and 5′-CMP (◯). ST6Gal-I activity was measured using Gal β1,4GlcNAcβ-O-Bn in the presence of 5′-CDP (▴) and 5′-CMP (Δ). ST3Gal-II using D-Fucβ1,3GalNAcα-O-Bn in the presence of 5′-CDP (▪) and 5′-CMP (□). b) Reverse sialylation by ST3Gal-II was measured in reaction mixtures containing 0.2 mM [9-^3H] [3], 7 mM 5′-CMP, ST3Gal-II (2 mU), D-Fucβ1,3GalNAcα-OBn (3.0 mM) and varying doses of either 5′-CDP (▴), 5′-UMP (◯) or 2-deoxy 5′-CMP (●) for 4 hours at 37° C. Reaction product ([9-^3H]NeuAcα2,3DFucβ1,3 GalNAcα-O-Bn) was isolated using Sep-Pak C18 method. In some runs, where was absent, the amount of CMP-NeuAc produced was quantified using the Dowex-1 Formate method in the presence of varying doses of 5′-CDP (▪).
(§2) Besides pH other distinctions were also observed between forward and reverse sialylation. In this regard, citrate ions tended to inhibit forward sialylation but not reverse sialylation activity (Table V). For these studies, the effect of citrate on the forward sialylation activity of ST3Gal-I, ST3Gal-II, ST3Gal-III and ST6Gal-I was examined. Reverse sialylation activity of ST3Gal-II was also measured in terms of: i) the formation of CMP-NeuAc from 5′-CMP; and ii) the transfer of NeuAc from this newly synthesized CMP-NeuAc to another O-glycan. From the data (Table V), it is evident that citrate inhibits the direct sialylation activity of all the enzymes mentioned above. However, both the synthesis of CMP-[9-^3H]NeuAc from 5′-CMP as well as the synthesis of [9-^3H]NeuAcα2,3D-Fucβ1,3 GalNAcα-O-Bn using the newly formed CMP-[9-^3H]NeuAc through reverse sialylation of ST3Gal-II was not inhibited by citrate.
(§3) The effect of 5′-nucleotides on forward sialylation (FIG. 5a) and reverse sialylation (FIG. 5b) were examined. […] The overall formation of [9-^3H]NeuAcα2,3D-Fucβ1,3 GalNAcα-O-Bn by the two-step reverse sialylation process, however, was inhibited by 5′-CDP and this is consistent with the finding that 5′-CDP inhibits forward sialylation in the second step.

ST3Gal-II [3] = target: T1, ST3Gal-II; assay: Reverse sialylation by ST3Gal-II in presence of citrate or 5′-nucleotides; conditions: 0.2 mM [3], 7 mM 5′-CMP, no [5], Dowex-1 Formate
Protocol: as §1, §2, §3

Incorporation of [9-3H]NeuAc expressed as percent of the CPM incorporated into 5′-CMP (ST3Gal-II [1]) [%] | Effect on forward sialylation activity of ST3Gal-II [2] | Effect on first step of reverse sialylation (formation of CMP-[9-3H]NeuAc from 5′-CMP) (ST3Gal-II [3]) | Incorporation of [9-3H]NeuAc (ST3Gal-II [1]; 1 mM nucleotide phosphate) | Structure (SMILES)
28.4 | inhibited | did not inhibit | – | Nc1ccn([C@@H]2O[C@H](COP(=O)(O)OP(=O)(O)O)[C@@H](O)[C@H]2O)c(=O)n1 [5′-CDP]
100.0 | inhibited | – | (44197 CPM) | Nc1ccn([C@@H]2O[C@H](COP(=O)(O)O)[C@@H](O)[C@H]2O)c(=O)n1 [5′-CMP, Cytidine 5′-monophosphate]
